Paper PMC5901408 (Pest Management Science, 2017)
Substitutions are numbered along the chain they refer to.

Legend:
[1] = biological target: T1, ZmEPSPS (Zea mays, UniProt A0A1D6NVZ6, P168A/T164I); test: EPSPS enzyme activity assay, glyphosate titration; assay type: biochemical
T1 sequence (A0A1D6NVZ6 63-506 T164I/P168A): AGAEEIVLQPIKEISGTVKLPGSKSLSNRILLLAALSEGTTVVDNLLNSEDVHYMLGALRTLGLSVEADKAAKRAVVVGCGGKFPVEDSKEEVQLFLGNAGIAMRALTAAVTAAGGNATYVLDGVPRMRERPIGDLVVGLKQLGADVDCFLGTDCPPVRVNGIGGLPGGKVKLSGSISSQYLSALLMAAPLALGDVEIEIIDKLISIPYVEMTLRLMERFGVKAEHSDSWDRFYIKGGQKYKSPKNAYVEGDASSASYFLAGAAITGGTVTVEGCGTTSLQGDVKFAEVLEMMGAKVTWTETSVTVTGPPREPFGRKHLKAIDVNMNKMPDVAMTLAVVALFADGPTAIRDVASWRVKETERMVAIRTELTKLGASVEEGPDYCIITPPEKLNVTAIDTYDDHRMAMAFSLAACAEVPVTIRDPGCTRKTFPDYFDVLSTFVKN

[2] = biological target: T2, ZmEPSPS (Zea mays, UniProt A0A1D6NVZ6); test: EPSPS enzyme activity assay, glyphosate titration; assay type: biochemical
T2 sequence (A0A1D6NVZ6 63-506): T1 sequence (A0A1D6NVZ6 63-506 T164I/P168A) with I102T, A106P

## O=C(O)CNCP(=O)(O)O [glyphosate]
[1]
  IC50: 19.5 ± 2.8 mM
[2]
  IC50: 0.0139 ± 0.0035 mM
